For the data set the following is noted: a range is the spread between reports.

Melting point data for 144 molecules are collected here from a melting point compilation (Tetko et al.).

The molecule `Cc1cc(C)c(C)c(O)c1` returned a melting point of 93.5 to 94 °C.

`CCOC(=O)CCCCC(=O)OCC` showed a melting point of -20 to -18 °C. In the case of `O=[N+]([O-])C(Br)(CO)CO` it was 127 to 132 °C. As for `OCCOCCOCCO`, the melting point was -7 to -4 °C. The value for `CCC(=O)C(CC(C)N(C)C)(c1ccccc1)c1ccccc1` (centres undefined) was 98.8 to 102 °C. In the case of `O=C1Cc2ccccc2C(=O)O1` it was 142 to 143 °C. In the case of `Cc1cc(C)cc(O)c1` it was 62.5 to 65.5 °C; in that of `OCC(O)COc1ccc(Cl)cc1` (centres undefined), 78 to 80 °C. Consider `CC(C)(C)S`, for which the melting point was -0.5 to 1 °C. The value for `COc1ccc(N)c(OC)c1` was 33.5 to 35 °C; that for `CCCc1ccc(C)cc1` was -64 to -63.6 °C. The value for `C=CCNCC=C` was -88.4 to -88 °C. The value for `Cc1ccccc1Cl` was -36 to -35 °C; that for `Cn1nnnc1S` was 122 to 127 °C; that for `CCCCCCCCCCCCCC(=O)O` was 53.9 to 55.1 °C. `CC[Si](CC)(CC)CC` yielded a melting point of -82.5 to -82 °C.

`Cc1c(C)c(C)c(CCl)c(C)c1C`: the melting point was in the range of 82 to 83 °C.

In turn, `N#Cc1ccc(C(N)=O)cc1` gave a melting point of 224 to 227 °C. For `CC1(O)CCCC1`, the melting point lay in the range of 36 to 37 °C. In the case of `CCC(C)(C)CC(C)C` it was -113 °C. `Cc1cc(N)ccc1Br` returned a melting point of 79 to 81 °C.

Take `O=C(c1cccs1)c1cccs1`: the melting point lay within 89 to 90 °C. In the case of `FC(F)(F)c1ccc(Cl)c(Cl)c1` it was -12.5 to -12 °C; in that of `CCCCCCCCCCCCCCCCC(=O)O`, 60 to 61.3 °C. In the case of `C=CC(C)(C)CC` it was -134 °C. In the case of `Cc1c(F)c(F)c(F)c(F)c1F` it was -30 to -29.8 °C; in that of `CC(C)c1ncc([N+](=O)[O-])n1C`, 60 to 61 °C. The molecule `c1ccc(COc2ccccc2)cc1` showed a melting point of 39 to 40 °C. Consider `ClC=C(Cl)Cl`, for which the melting point is -85 to -84.7 °C. In the case of `Nc1ccc(F)c([N+](=O)[O-])c1` it was 96 to 97.5 °C; in that of `CCCCCCCCCCN`, 13 to 17 °C. In turn, `Clc1ccc(Cl)nn1` came in with a melting point of 67.5 to 68 °C. The value for `CCOC(=O)/C=C/C(=O)OCC` was 0 to 2 °C; that for `c1ccc(CCc2ccccc2)cc1` was 51 to 55 °C; that for `CC(C)=CC(C)(C)C` was -106 °C. `CC(C)C(C)C` had a melting point of -129 to -128 °C. The value for `C/C=C/c1ccc(OC)cc1` was 21 to 23 °C; that for `O=[N+]([O-])c1ccc(O)cc1` was 112 to 115 °C.

Take `Cc1ccc(OCC(=O)O)cc1`: the melting point is 140 to 141 °C. In the case of `CCCCCCCCCC=O` it was -6 to -5 °C; in that of `ClC(Cl)C(Cl)(Cl)Cl`, -29 to -28.8 °C; in that of `COc1ccccc1`, -37.5 to -37 °C.

In the case of `Nc1ccc(Br)cc1`, the melting point fell in the range of 63 to 66.4 °C. The value for `C=CC(=O)OCCCC` was -64.6 to -64 °C.

For `CC(C)CC(=O)CC(C)C`, the melting point was -42 to -41.5 °C.

Molecule `CC(C)C1CC1` registered a melting point of -113 °C. The value for `CCCCCCCCCCCCCCCCCC(C)=O` was 55 to 57 °C; that for `CCCCCCCCCC(C)O` (centres undefined) was 0 to 2 °C. In the case of `ClCc1ccc(Cl)cc1` it was 28 to 31 °C.

With `CC=CC=CCO`, the melting point was 30.5 to 31 °C. The value for `CNC(=O)c1ccccc1` was 79 to 82 °C; that for `CCC(=O)c1ccccc1` was 18 to 19 °C.

With `CC(O)CNCC(C)O` (centres undefined), the melting point lay in the range of 42 to 44.5 °C.

In the case of `O=C[C@H](O)[C@@H](O)[C@@H](O)[C@H](O)CO`, the melting point lay within 166 to 167 °C. The value for `O=Cc1ccc2ccccc2n1` was 68 to 71 °C. `Nc1c(F)c(F)cc(F)c1F` yielded a melting point of 31 to 31.5 °C.

The molecule `c1ccc(Nc2cccc3ccccc23)cc1` showed a melting point of 61 to 62 °C. In the case of `Fc1cc(F)c(F)cc1F` it was 4 to 4.5 °C; in that of `Oc1nc2ccccc2s1`, 138 to 139 °C. The value for `O=C(O)c1cccc(O)c1` was 202 to 203 °C; that for `CC(C)CC1CCCC1` was -115 °C; that for `Cc1ccc([N+](=O)[O-])cc1Br` was 76 to 78 °C. The value for `CC12CCC(CC1)C(C)(C)O2` was 1 to 1.5 °C; that for `Cc1cccc(C)c1I` was 11 to 11.2 °C. As for `COc1cccc(C(=O)NN)c1`, the melting point was in the range of 92 to 94 °C.

Take `CCC(=O)c1cc(O)ccc1O`: the melting point was 96.5 to 98 °C. In turn, `CC(=O)NO` displayed a melting point of 88 to 90.5 °C.

`COc1ccc2[nH]ccc2c1` yielded a melting point of 54 to 57 °C. Consider `COC(=O)c1cccc(Br)c1`, for which the melting point was in the range of 32 to 33 °C. In the case of `O=C(O)c1c(F)ccc(F)c1F` it was 130 to 131 °C; in that of `Cc1cccc(C(=O)O)c1C`, 145 to 146 °C. The value for `OC/C=C/c1ccccc1` was 30 to 34 °C; that for `CCCCCCCCCCCCCCBr` was 5 to 5.6 °C. The value for `O=S(Cl)Cl` was -105 to -104 °C. `Cc1cc(C)cc([N+](=O)[O-])c1` returned a melting point of 71 to 75 °C. In the case of `NNC(=O)c1ccc(Br)cc1` it was 166 to 168 °C; in that of `O=C(Cl)CCc1ccccc1`, -7 to -2 °C; in that of `O=C(c1ccccc1)c1ccc(Cl)cc1`, 76 to 77.5 °C. The value for `O=[N+]([O-])c1ccc(F)c([N+](=O)[O-])c1` was 25.8 to 27 °C. In the case of `CCCCOc1ccc(O)cc1` it was 65 to 65.5 °C. Take `O=C(O)Cc1cccc([N+](=O)[O-])c1`: the melting point lay in the range of 118 to 119 °C. In the case of `C=CCc1ccccc1OCC(O)CNC(C)C` (centres undefined) it was 108 to 109 °C; in that of `CC=C(C)CC`, -138 to -135 °C; in that of `COCC(C)O` (centres undefined), -100 to -95 °C. The value for `O=S(=O)(Cl)c1ccccc1` was 14.5 to 15 °C; that for `Clc1cc(Cl)c(Cl)cc1Cl` was 139 to 140 °C.

As for `Cc1cc(O)c(C(C)C)cc1Cl`, the melting point fell in the range of 59 to 63 °C. The value for `CC1=CC(=O)OC1=O` was 7.5 to 8 °C; that for `CCCCC=O` was -92 to -91 °C; that for `O=Cc1ccc(C(F)(F)F)cc1` was 1.5 to 2 °C. The value for `Cc1cccs1` was -63.4 to -63 °C. In the case of `O=C(O)C(c1ccccc1)c1ccccc1` it was 146 to 147 °C; in that of `c1ccc2c3c([nH]c2c1)CCCC3`, 118 to 120 °C. `Clc1ccc(Cl)c(I)c1` had a melting point of 21 to 22 °C. The value for `Brc1cnc2ccccc2c1` was 13.3 to 14 °C. The value for `CCCCCCCCCCCC(=O)OC` was 5 to 5.2 °C.

`O=C(O)COc1ccccc1` registered a melting point of 98.5 to 100 °C. The value for `FC(F)(F)F` was -184 °C; that for `CCC(=O)O` was -21.1 to -20.7 °C. In the case of `C=CC=C` it was -113 to -109 °C; in that of `Nc1ccncc1`, 158 to 159 °C. In the case of `CCOC(=O)c1ccc(N)cc1` it was 88 to 92 °C; in that of `O=[N+]([O-])c1ccccc1-c1ccccc1`, 37 to 37.2 °C; in that of `COC(N)=O`, 54 to 55 °C.

The molecule `Oc1ccc(Cl)cc1Cl` displayed a melting point of 42 to 45 °C. `CC(=O)Oc1ccc(OC(C)=O)cc1` came in with a melting point of 121 to 125 °C.

For the molecule `Cc1nc(-c2ccc(-c3nc(C)c(-c4ccccc4)o3)cc2)oc1-c1ccccc1`, the melting point lay within 232 to 234 °C. The value for `CC(Cl)C(Cl)(Cl)Cl` (centres undefined) was -65 to -64 °C; that for `CCCCCCCCC(=O)CC` was 9 to 13 °C; that for `S=C=Nc1ccc(Br)cc1` was 58 to 60.5 °C. For the molecule `CCNC(=S)NCC`, the melting point fell in the range of 77 to 78 °C. The value for `c1ccc(Cc2ccc(-c3ccccc3)cc2)cc1` was 85 to 86 °C; that for `NS(=O)(=O)c1ccccc1` was 151 to 153 °C; that for `CCC(CC)(CC)CC` was -33.1 to -33 °C.

In turn, `C1=Cc2cccc3cccc1c23` yielded a melting point of 91 to 92.5 °C. In the case of `C1CCCCC1` it was 6.45 to 7 °C; in that of `Nc1c(Cl)ccc(Cl)c1C(=O)O`, 152 to 155 °C.

In turn, `C=CCC1(C(C)C)C(=O)NC(=O)NC1=O` had a melting point of 141 to 143 °C. On to `O=S(=O)(Cc1ccccc1)c1ccccc1`, for which the melting point is 146 to 149 °C. The value for `Cc1ccccc1C(C)C` was -72 to -71.5 °C; that for `CCCC=C(C)C` was -130 °C; that for `O=C(O)c1cccc(Oc2ccccc2)c1` was 148 to 150 °C. For `CNc1ccccc1C(=O)OC`, the melting point is 18 to 19 °C. In the case of `CCC(C)(C)C(C)(C)C` it was -10 to -9.8 °C. In the case of `CC(=O)c1ccc(C)s1` it was 26 to 27.5 °C.

Molecule `Cc1ccc(N)cc1Br` registered a melting point of 26 to 27 °C. `C1CCNCC1` registered a melting point of -11 to -7 °C. In the case of `CCCCCCCCCCCCCCCCCCCCCCCCCCCCC` it was 63.7 to 66 °C. The value for `CC(c1ccccc1)c1ccccc1` was -18 to -17.9 °C; that for `O=[N+]([O-])c1ccccc1` was 5 to 6 °C. For the molecule `CC1CCC2CC1C2(C)C` (centres undefined), the melting point was -53 to -50 °C. The value for `O=C(Oc1ccccc1)c1ccccc1O` was 42 to 43 °C; that for `CC(C)(C)c1ccc(O)c(N)c1` was 161 to 163 °C.

`Cc1ccc(N)cc1` came in with a melting point of 43 to 44 °C. In the case of `O=C(O)c1ccccc1N=Nc1ccc(O)cc1` it was 205 to 206 °C; in that of `COC(=O)C(Cl)Cl`, -52 to -51.9 °C. `CC(C)=C(C)C` had a melting point of -75 to -74 °C.

With `O=C(O)c1ccccc1-c1ccc(C(F)(F)F)cc1`, the melting point was in the range of 169 to 170 °C. The value for `OCc1ccccc1-c1ccccc1` was 49 to 50 °C; that for `CC(C)CN` was -87 to -85 °C; that for `CC=C(C)C(C)C` was -124 °C. The value for `CC(C)c1ccc(Cl)cc1` was -12.3 to -12 °C; that for `ClCCBr` was -18 to -16.7 °C; that for `Cc1cc(O)ccc1Cl` was 66 to 67 °C.
